From US11697646B2, “Triazole N-linked carbamoyl cyclohexyl acids as LPA antagonists” (BRISTOL-MYERS SQUIBB COMPANY, priority 2017, dated 2023)

biological target: T1, human LPA1 (Homo sapiens, UniProt Q92633); test: LPA1 functional antagonist assay (calcium flux); format: cell-based; settings: CHO cells overexpressing human LPA1; calcium flux induced by 10 nM LPA; read-out: hLPA1 IC50
T1 construct: expressed in transfected cells; host or cells: Chinese hamster ovary (CHO) cells
Experimental: The effectiveness of compounds of the present invention as LPA1 inhibitors can be determined in an LPA1 functional antagonist assay as follows:
The cells were then equilibrated to room temperature for 30 minutes before the assay. […] IC50 values were determined by fitting data to a 4-parameter logistic equation (GraphPad Prism, San Diego Calif.).

T1 sequence (Q92633 whole entry): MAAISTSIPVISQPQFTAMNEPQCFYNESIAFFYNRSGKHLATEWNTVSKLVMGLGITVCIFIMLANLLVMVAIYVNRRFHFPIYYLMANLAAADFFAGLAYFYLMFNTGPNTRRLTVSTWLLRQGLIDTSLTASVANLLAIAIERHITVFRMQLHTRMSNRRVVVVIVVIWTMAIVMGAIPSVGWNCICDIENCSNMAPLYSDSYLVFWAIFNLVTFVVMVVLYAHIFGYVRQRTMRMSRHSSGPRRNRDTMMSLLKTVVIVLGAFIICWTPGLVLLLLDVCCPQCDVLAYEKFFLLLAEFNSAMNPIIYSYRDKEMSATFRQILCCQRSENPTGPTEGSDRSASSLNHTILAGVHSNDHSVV

| IC50 | Structure (SMILES) |
| --- | --- |
| 11 nM | Cc1nc(-c2nnn(C)c2NC(=O)OCCC2CC2)ccc1O[C@H]1CCC[C@H](C(=O)O)C1 [Example 73, (1S,3S)-3-((6-(5-(((2-cyclopropyl-ethoxy)carbonyl)amino)-1-methyl-1H-1,2,3-triazol-4-yl)-2-methyl-pyridin-3-yl)oxy)cyclohexane-1-carboxylic acid] |
| 14 nM | Cc1nc(-c2nnn(C)c2NC(=O)OCC2CC2)ccc1O[C@H]1CCC[C@H](C(=O)O)C1 [Example 74, (1S,3S)-3-((6-(5-(((cyclopropyl-methoxy)carbonyl)amino)-1-methyl-1H-1,2,3-triazol-4-yl)-2-methyl-pyridin-3-yl)oxy)cyclohexane-1-carboxylic acid] |
| 22 nM | Cc1nc(-c2nnn(C)c2NC(=O)OCC2CCC2)ccc1O[C@H]1CCC[C@H](C(=O)O)C1 [Example 75] |
| 19 nM | Cc1nc(-c2nnn(C)c2NC(=O)OCC2CCCCC2)ccc1O[C@H]1CCC[C@H](C(=O)O)C1 [Example 76, (1S,3S)-3-((6-(5-(((cyclohexyl-methoxy)carbonyl)amino)-1-methyl-1H-1,2,3-triazol-4-yl)-2-methyl-pyridin-3-yl)oxy)cyclohexane-1-carboxylic acid] |
| 20 nM | Cc1nc(-c2nnn(C)c2NC(=O)OCCC(C)C)ccc1O[C@H]1CCC[C@H](C(=O)O)C1 [Example 77, (1S,3S)-3-((6-(5-(((isopentyloxy)carbonyl)amino)-1-methyl-1H-1,2,3-triazol-4-yl)-2-methylpyridin-3-yl)oxy)cyclohexane-1-carboxylic acid] |
| 32 nM | Cc1nc(-c2nnn(C)c2NC(=O)OCC2CCCC2)ccc1O[C@H]1CCC[C@H](C(=O)O)C1 [Example 79, (1S,3S)-3-((6-(5-(((cyclopentylmethoxy)carbonyl)amino)-1-methyl-1H-1,2,3-triazol-4-yl)-2-methylpyridin-3-yl)oxy)cyclohexane-1-carboxylic acid] |
| 37 nM | Cc1nc(-c2nnn(C)c2NC(=O)OCc2ccccc2)ccc1O[C@H]1CCC[C@H](C(=O)O)C1 [Example 80, (1S,3S)-3-((6-(5-(((benzyloxy)carbonyl)amino)-1-methyl-1H-1,2,3-triazol-4-yl)-2-methylpyridin-3-yl)oxy)cyclohexane-1-carboxylic acid] |
| 115 nM | CC(C)CCOC(=O)Nc1c(-c2ccc(O[C@H]3CCC[C@H](C(=O)O)C3)cn2)nnn1C [Example 85, (1S,3S)-3-((6-(5-(((isopentyloxy)carbonyl)amino)-1-methyl-1H-1,2,3-triazol-4-yl)pyridin-3-yl)oxy)cyclohexane-1-carboxylic acid] |
| 35 nM | C[C@@H](OC(=O)Nc1c(-c2ccc(O[C@H]3CCC[C@H](C(=O)O)C3)cn2)nnn1C)c1ccccc1 [Example 91, (1S,3S)-3-((6-(1-methyl-5-((((R)-1-phenylethoxy)carbonyl)amino)-1H-1,2,3-triazol-4-yl)pyridin-3-yl)oxy)cyclohexane-1-carboxylic acid] |
| 14 nM | Cn1nnc(-c2ccc(O[C@H]3CCC[C@H](C(=O)O)C3)c(C(F)(F)F)n2)c1CNC(=O)OCc1ccccc1 [Example 92, (1S,3S)-3-((6-(5-((((benzyloxy)carbonyl)amino)methyl)-1-methyl-1H-1,2,3-triazol-4-yl)-2-(trifluoro-methyl)pyridin-3-yl)oxy)cyclohexane-1-carboxylic acid] |
| 33 nM | Cn1nnc(-c2ccc(O[C@H]3CCC[C@H](C(=O)O)C3)c(C(F)F)n2)c1CNC(=O)OCc1ccccc1 [Example 98, (1S,3S)-3-((6-(5-((((benzyloxy)carbonyl)amino)methyl)-1-methyl-1H-1,2,3-triazol-4-yl)-2-(difluoro-methyl)pyridin-3-yl)oxy)cyclohexane-1-carboxylic acid] |
| 30 nM | COCc1nc(-c2nnn(C)c2CNC(=O)OCc2ccccc2)ccc1O[C@H]1CCC[C@H](C(=O)O)C1 [Example 102, (1S,3S)-3-((6-(5-((((benzyloxy)carbonyl)amino)methyl)-1-methyl-1H-1,2,3-triazol-4-yl)-2-(methoxy-methyl)pyridin-3-yl)oxy)cyclohexane-1-carboxylic acid] |

The remaining lines, values behind:

| Structure (SMILES) | IC50 |
| --- | --- |
| Cc1nc(-c2nnn(C)c2NC(=O)OCC(C)C)ccc1O[C@H]1CCC[C@H](C(=O)O)C1 [Example 78, (1S,3S)-3-((6-(5-((isobutoxy-carbonyl)amino)-1-methyl-1H-1,2,3-triazol-4-yl)-2-methylpyridin-3-yl)oxy)cyclohexane-1-carboxylic acid] | 29 nM |
| Cn1nnc(-c2ccc(O[C@H]3CCC[C@H](C(=O)O)C3)cn2)c1NC(=O)OCC1CCC1 [Example 81] | 56 nM |
| C[C@@H](OC(=O)Nc1c(-c2ccc(O[C@H]3CCC[C@H](C(=O)O)C3)cn2)nnn1C)C1CC1 [Example 82, (1S,3S)-3-((6-(5-((((R)-1-cyclopropyl-ethoxy)carbonyl)amino)-1-methyl-1H-1,2,3-triazol-4-yl)pyridin-3-yl)oxy)cyclohexane-1-carboxylic acid] | 79 nM |
| Cn1nnc(-c2ccc(O[C@H]3CCC[C@H](C(=O)O)C3)cn2)c1NC(=O)OCC1CC1 [Example 83, (1S,3S)-3-((6-(5-(((cyclopropyl-methoxy)carbonyl)amino)-1-methyl-1H-1,2,3-triazol-4-yl)pyridin-3-yl)oxy)cyclohexane-1-carboxylic acid] | 178 nM |
| Cn1nnc(-c2ccc(O[C@H]3CCC[C@H](C(=O)O)C3)cn2)c1NC(=O)OCCC1CC1 [Example 84, (1S,3S)-3-((6-(5-(((2-cyclopropyl-ethoxy)carbonyl)amino)-1-methyl-1H-1,2,3-triazol-4-yl)pyridin-3-yl)oxy)cyclohexane-1-carboxylic acid] | 38 nM |
| Cn1nnc(-c2ccc(O[C@H]3CCC[C@H](C(=O)O)C3)cn2)c1NC(=O)OCC1CCCCC1 [Example 86, (1S,3S)-3-((6-(5-(((cyclohexyl-methoxy)carbonyl)amino)-1-methyl-1H-1,2,3-triazol-4-yl)pyridin-3-yl)oxy)cyclohexane-1-carboxylic acid] | 36 nM |
| CC(C)COC(=O)Nc1c(-c2ccc(O[C@H]3CCC[C@H](C(=O)O)C3)cn2)nnn1C [Example 87, (1S,3S)-3-((6-(5-((isobutoxy-carbonyl)amino)-1-methyl-1H-1,2,3-triazol-4-yl)pyridin-3-yl)oxy)cyclohexane-1-carboxylic acid] | 219 nM |
| CCCCCOC(=O)Nc1c(-c2ccc(O[C@H]3CCC[C@H](C(=O)O)C3)cn2)nnn1C [Example 88] | 34 nM |
| CCCCOC(=O)Nc1c(-c2ccc(O[C@H]3CCC[C@H](C(=O)O)C3)cn2)nnn1C [Example 89, (1S,3S)-3-((6-(5-((butoxycarbonyl)amino)-1-methyl-1H-1,2,3-triazol-4-yl)pyridin-3-yl)oxy)cyclohexane-1-carboxylic acid] | 66 nM |
| Cn1nnc(-c2ccc(O[C@H]3CCC[C@H](C(=O)O)C3)cn2)c1NC(=O)OC1CCCC1 [Example 90, (1S,3S)-3-((6-(5-(((cyclopentyloxy)carbonyl)amino)-1-methyl-1H-1,2,3-triazol-4-yl)pyridin-3-yl)oxy)cyclohexane-1-carboxylic acid] | 149 nM |
| CC(C)COC(=O)NCc1c(-c2ccc(O[C@H]3CCC[C@H](C(=O)O)C3)c(C(F)(F)F)n2)nnn1C [Example 93, (1S,3S)-3-((6-(5-(((isobutoxy-carbonyl)amino)methyl)-1-methyl-1H-1,2,3-triazol-4-yl)-2-(trifluoro-methyl)pyridin-3-yl)oxy)cyclohexane-1-carboxylic acid] | 25 nM |
| CCCCOC(=O)NCc1c(-c2ccc(O[C@H]3CCC[C@H](C(=O)O)C3)c(C(F)(F)F)n2)nnn1C [Example 94, (1S,3S)-3-((6-(5-(((butoxycarbonyl)amino)methyl)-1-methyl-1H-1,2,3-triazol-4-yl)-2-(trifluoromethyl)pyridin-3-yl)oxy)cyclohexane-1-carboxylic acid] | 14 nM |
| CCCOC(=O)NCc1c(-c2ccc(O[C@H]3CCC[C@H](C(=O)O)C3)c(C(F)(F)F)n2)nnn1C [Example 95, (1S,3S)-3-((6-(1-methyl-5-(((propoxy-carbonyl)amino)methyl)-1H-1,2,3-triazol-4-yl)-2-(trifluoromethyl)pyridin-3-yl)oxy)cyclohexane-1-carboxylic acid] | 867 nM |
| Cn1nnc(-c2ccc(O[C@H]3CCC[C@H](C(=O)O)C3)c(C(F)(F)F)n2)c1CNC(=O)OC1CCCC1 [Example 96] | 33 nM |
| Cn1nnc(-c2ccc(O[C@H]3CCC[C@H](C(=O)O)C3)c(C(F)(F)F)n2)c1CNC(=O)OCCCCF [Example 97, (1S,3S)-3-((6-(5-((((4-fluorobutoxy)carbonyl)amino)methyl)-1-methyl-1H-1,2,3-triazol-4-yl)-2-(trifluoro-methyl)pyridin-3-yl)oxy)cyclohexane-1-carboxylic acid] | 25 nM |
| CC(C)COC(=O)NCc1c(-c2ccc(O[C@H]3CCC[C@H](C(=O)O)C3)c(C(F)F)n2)nnn1C [Example 99, (1S,3S)-3-((2-(difluoromethyl)-6-(5-(((isobutoxycarbonyl)amino)methyl)-1-methyl-1H-1,2,3-triazol-4-yl)pyridin-3-yl)oxy)cyclohexane-1-carboxylic acid] | 71 nM |
| CCCCOC(=O)NCc1c(-c2ccc(O[C@H]3CCC[C@H](C(=O)O)C3)c(C(F)F)n2)nnn1C [Example 100, (1S,3S)-3-((6-(5-(((butoxycarbonyl)amino)methyl)-1-methyl-1H-1,2,3-triazol-4-yl)-2-(difluoromethyl)pyridin-3-yl)oxy)cyclohexane-1-carboxylic acid] | 39 nM |
| CCCOC(=O)NCc1c(-c2ccc(O[C@H]3CCC[C@H](C(=O)O)C3)c(C(F)F)n2)nnn1C [Example 101, (1S,3S)-3-((2-(difluoromethyl)-6-(1-methyl-5-(((propoxycarbonyl)amino)methyl)-1H-1,2,3-triazol-4-yl)pyridin-3-yl)oxy)cyclohexane-1-carboxylic acid] | 2030 nM |
